In PubChem BioAssay (NCI):
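GI50 is the concentration that inhibits growth by half. The concentration for full growth arrest is given as TGI.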

Experiments:
Assay in all cases: NCI tumour cell line growth inhibition, 384-well format
786-0 renal = test system: 786-0 renal
A498 renal = test system: A498 renal
A549 NSCLC = test system: A549 NSCLC
ACHN renal = test system: ACHN renal
BT-549 breast = test system: BT-549 breast
CAKI-1 renal = test system: CAKI-1 renal
CCRF-CEM leukemia = test system: CCRF-CEM leukemia
COLO 205 colon = test system: COLO 205 colon
EKVX NSCLC = test system: EKVX NSCLC
HCC-2998 colon = test system: HCC-2998 colon
HCT-116 colon = test system: HCT-116 colon
HOP-92 NSCLC = test system: HOP-92 NSCLC
HS 578T breast = test system: HS 578T breast
HT29 colon = test system: HT29 colon
IGROV1 ovarian = test system: IGROV1 ovarian
K-562 leukemia = test system: K-562 leukemia
KM12 colon = test system: KM12 colon
LOX IMVI melanoma = test system: LOX IMVI melanoma
M14 melanoma = test system: M14 melanoma
MALME-3M melanoma = test system: MALME-3M melanoma
MDA-MB-231 breast = test system: MDA-MB-231 breast
MDA-MB-468 breast = test system: MDA-MB-468 breast
MOLT-4 leukemia = test system: MOLT-4 leukemia
NCI-H226 lung = test system: NCI-H226 lung
NCI-H322M lung = test system: NCI-H322M lung
NCI-H522 lung = test system: NCI-H522 lung
OVCAR-3 ovarian = test system: OVCAR-3 ovarian
OVCAR-4 ovarian = test system: OVCAR-4 ovarian
OVCAR-5 ovarian = test system: OVCAR-5 ovarian
OVCAR-8 ovarian = test system: OVCAR-8 ovarian
PC-3 prostate = test system: PC-3 prostate
RPMI-8226 leukemia = test system: RPMI-8226 leukemia
RXF 393 renal = test system: RXF 393 renal
SF-268 CNS = test system: SF-268 CNS
SF-295 CNS = test system: SF-295 CNS
SF-539 CNS = test system: SF-539 CNS
SK-MEL-28 melanoma = test system: SK-MEL-28 melanoma
SK-MEL-5 melanoma = test system: SK-MEL-5 melanoma
SK-OV-3 ovarian = test system: SK-OV-3 ovarian
SN12C renal = test system: SN12C renal
SNB-19 CNS = test system: SNB-19 CNS
SNB-75 CNS = test system: SNB-75 CNS
SR leukemia = test system: SR leukemia
SW-620 colon = test system: SW-620 colon
U251 glioblastoma = test system: U251 glioblastoma
UACC-257 melanoma = test system: UACC-257 melanoma
UACC-62 melanoma = test system: UACC-62 melanoma
UO-31 renal = test system: UO-31 renal

**Q.** What does the source list for `Nc1ncn(C2OC(CO)C(O)C2O)c(=O)n1` (stereo not given)?
**A.** GI50 ([…]-0 renal): 1870 nM; TGI (786-0 renal): > 42.3 µM; GI50 (A498 renal): 2500 nM; TGI (A498 renal): 11.9 µM; GI50 (A549 NSCLC): 3.24 µM; TGI (A549 NSCLC): > 38 µM; GI50 (ACHN renal): 1300 nM; TGI (ACHN renal): 17 µM; GI50 (BT-549 breast): 694 nM; TGI (BT-549 breast): 3.31 µM; GI50 (CAKI-1 renal): 466 nM; TGI (CAKI-1 renal): 4.35 µM; GI50 (CCRF-CEM leukemia): 993 nM; TGI (CCRF-CEM leukemia): 3.67 µM; GI50 (COLO 205 colon): 1410 nM; TGI (COLO 205 colon): 10.9 µM; GI50 (EKVX NSCLC): 19.5 µM; TGI (EKVX NSCLC): > 75.8 µM; GI50 (HCC-2998 colon): 1580 nM; TGI (HCC-2998 colon): 5.01 µM; GI50 (HCT-116 colon): 627 nM; TGI (HCT-116 colon): 2570 nM; GI50 (HOP-92 NSCLC): 2360 nM; TGI (HOP-92 NSCLC): 30 µM; GI50 (HS 578T breast): 1380 nM; TGI (HS 578T breast): 7.12 µM; GI50 (HT29 colon): 3.52 µM; TGI (HT29 colon): 30.1 µM; GI50 (IGROV1 ovarian): 2610 nM; TGI (IGROV1 ovarian): 10.3 µM; GI50 (K-562 leukemia): 657 nM; TGI (K-562 leukemia): 5.41 µM; GI50 (KM12 colon): 2540 nM; TGI (KM12 colon): 11.8 µM; GI50 (LOX IMVI melanoma): 531 nM; TGI (LOX IMVI melanoma): 1850 nM; GI50 (M14 melanoma): 1450 nM; TGI (M14 melanoma): 9.78 µM; GI50 (MALME-3M melanoma): 3.3 µM; TGI (MALME-3M melanoma): 16.7 µM; GI50 (MDA-MB-231 breast): 1550 nM; TGI (MDA-MB-231 breast): 17.4 µM; GI50 (MDA-MB-468 breast): 529 nM; TGI (MDA-MB-468 breast): 1410 nM; GI50 (MOLT-4 leukemia): 1320 nM; TGI (MOLT-4 leukemia): 2720 nM; GI50 (NCI-H226 lung): 4.46 µM; TGI (NCI-H226 lung): 27.8 µM; GI50 (NCI-H322M lung): 1520 nM; TGI (NCI-H322M lung): 25.7 µM; GI50 (NCI-H522 lung): 1580 nM; TGI (NCI-H522 lung): 6.41 µM; GI50 (OVCAR-3 ovarian): 1460 nM; TGI (OVCAR-3 ovarian): 5.06 µM; GI50 (OVCAR-4 ovarian): 3.33 µM; TGI (OVCAR-4 ovarian): 23.8 µM; GI50 (OVCAR-5 ovarian): 3.22 µM; TGI (OVCAR-5 ovarian): 23 µM; GI50 (OVCAR-8 ovarian): 1990 nM; TGI (OVCAR-8 ovarian): 17.8 µM; GI50 (PC-3 prostate): 4.16 µM; TGI (PC-3 prostate): 42.1 µM; GI50 (RPMI-8226 leukemia): 138 nM; TGI (RPMI-8226 leukemia): 590 nM; GI50 (RXF 393 renal): 1250 nM; TGI (RXF 393 renal): 10.9 µM; GI50 (SF-268 CNS): 4.36 µM; TGI (SF-268 CNS): > 31.9 µM; GI50 (SF-295 CNS): 2780 nM; TGI (SF-295 CNS): 16.5 µM; GI50 (SF-539 CNS): 2070 nM; TGI (SF-539 CNS): 6.09 µM; GI50 (SK-MEL-28 melanoma): 3.33 µM; TGI (SK-MEL-28 melanoma): 18 µM; GI50 (SK-MEL-5 melanoma): 628 nM; TGI (SK-MEL-5 melanoma): 2120 nM; GI50 (SK-OV-3 ovarian): 3.18 µM; TGI (SK-OV-3 ovarian): > 27.7 µM; GI50 (SN12C renal): 1580 nM; TGI (SN12C renal): 35.7 µM; GI50 (SNB-19 CNS): 4.47 µM; TGI (SNB-19 CNS): > 42.2 µM; GI50 (SNB-75 CNS): 2230 nM; GI50 (SR leukemia): 165 nM; TGI (SR leukemia): 423 nM; GI50 (SW-620 colon): 2250 nM; TGI (SW-620 colon): > 34.7 µM; GI50 (U251 glioblastoma): 1420 nM; TGI (U251 glioblastoma): > 33.2 µM; GI50 (UACC-257 melanoma): 6.88 µM; TGI (UACC-257 melanoma): 33.3 µM; GI50 (UACC-62 melanoma): 561 nM; TGI (UACC-62 melanoma): 2780 nM; GI50 (UO-31 renal): 2500 nM; TGI (UO-31 renal): 15.1 µM
